“And” between values parts separate entries of the source, which are not always exact repeats. Equal entries are not always repeated. “Also recorded” adds a separate entry of the source. Where two headings read alike, the source gives them in different places.
Columns and labels:
[1] = tested on: Tibialis-anterior muscle fibers; assay: Histochemical staining for succinate dehydrogenase (SDH) of tibialis-anterior muscle, quantification of oxidative fibers; type: in vivo, rat; conditions: for Biopsis #1 Non-oxydative fibers (pixels) / Biopsis #1 oxydative fibers (% from total pixels) / Biopsis #1 oxydative fibers (pixels) / Biopsis #2 Non-oxydative fibers (pixels) / Biopsis #2 oxydative fibers (% from total pixels) / Biopsis #2 oxydative fibers (pixels): rat tibialis-anterior, individual animals
Procedure: The muscle fibers on a set of animals that were treated with the compound 1.1 at the doses of 3 or 10 mg/kg once a day for 3 weeks are analyzed. Tibialis-anterior from 3 animals per group were used for both morpho-histology analysis and molecular analysis of specific markers of mitochondrial activities. The histology analysis was preformed on cryosection followed by a histochemical staining for succinate dehydrogenase (SDH) (Luquet S. et al., FASEB J, 2003. 17(15): p. 2299-301). Two biopsies of each muscle samples were generated and analyzed.
The quantification was performed by using Adobe Photoshop software (Lehr et al. Histochem Cytochem, 1997. 45(11): p. 1559-65, J Histochem Cytochem, 1999. 47(1): p. 119-26), and was based on pictures (in TIFF format) obtained from different slides of muscle (Tibialis-Anterior).
For each picture identical areas of about 57000 pixels at similar magnification were selected and the surface occupied by the stained fibers was measured (FIG. 1). The results are expressed as the percentage of the area of highly-stained and moderately-stain fibers from the total area selected. The analysis is performed in a blinded fashion.
Statistical analysis (Prism-Graphpad) was performed using unpaired T-test with: * corresponding to p<0.05 and ** to p<0.01.

mouse PPARα = target: T1, mouse PPARα (Mus musculus, UniProt P23204); assay: GAL4-PPAR chimera transactivation assay in CV-1 cells at 10% or 0.1% serum (Example 4); type: cell-based; conditions: read-out: GAL4-chimera (mouse) EC50 (μM) hPPARα
T1 construct: amino acids 167-468 for hs and m; expressed in transfected cells; host or cells: CV-1
T1 sequence (P23204 167-468): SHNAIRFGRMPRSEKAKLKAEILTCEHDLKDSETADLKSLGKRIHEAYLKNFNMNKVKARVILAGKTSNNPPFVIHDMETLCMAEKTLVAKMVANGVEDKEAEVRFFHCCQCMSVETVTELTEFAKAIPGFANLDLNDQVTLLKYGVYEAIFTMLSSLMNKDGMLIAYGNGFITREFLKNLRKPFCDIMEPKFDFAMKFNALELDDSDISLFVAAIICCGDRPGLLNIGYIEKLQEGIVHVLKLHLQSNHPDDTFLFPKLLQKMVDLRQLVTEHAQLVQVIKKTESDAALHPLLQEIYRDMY

mouse PPARγ = target: T2, mouse PPARγ (Mus musculus, UniProt P37238); assay: as above; type: cell-based; conditions: read-out: GAL4-chimera (mouse) EC50 (μM) hPPARγ
T2 construct: amino acids 204-505 for m and mm from PPARγ; expressed in transfected cells; host or cells: CV-1
T2 sequence (P37238 204-505): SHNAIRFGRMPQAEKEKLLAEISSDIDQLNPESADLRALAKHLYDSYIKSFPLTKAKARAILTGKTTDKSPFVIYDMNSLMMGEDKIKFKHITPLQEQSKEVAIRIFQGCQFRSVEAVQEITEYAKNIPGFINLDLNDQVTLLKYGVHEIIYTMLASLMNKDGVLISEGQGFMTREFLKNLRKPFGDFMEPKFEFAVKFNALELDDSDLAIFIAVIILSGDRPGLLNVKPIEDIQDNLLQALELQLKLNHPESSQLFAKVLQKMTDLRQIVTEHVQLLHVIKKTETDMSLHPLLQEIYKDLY

[2] = Body weight follow-up during treatment in rats fed a high fat/medium fructose diet (WD); type: in vivo, rat; conditions: oral once daily
Excerpt: The first set of rats was undergoing an OGTT after 3 weeks of treatment (half rats/group of the clamp arm) and the second set was also undergoing an OGTT after 3 weeks of treatment (half rats/group of clamp arm) and the Histology study (3 rats/group). […] Homogenous mild obese and insulin resistant rats were allocated into the different treatment groups and western diet was continued until the end of the experiment. Given that, the 2 series started with a gap of one week Dosage regimen: Rats were treated once daily via the oral route, in the morning. The duration of the treatment was between 5 and 5.5 weeks. […], 10 mg/Kg (n=12) […] The second set of rats was weighted at 8:30 on days 17 and 21, at 1:45 pm on day 24 and at 11:10 am on day 28.

[3] = Plasma biochemistry after 17 days of treatment in WD fed rats (glycemia, insulin, HOMA-IR, adiponectin, FFA, TG); type: in vivo, rat
[4] = Triglycerides content in the liver after 5 weeks of treatment in WD fed rats (enzymatic-colorimetric method); type: in vivo, rat; conditions: pioglitazone 10, GW501516 10, compound I.1 at any used dose
Procedure: (§1) At the end of the clamp procedure (9.5 hours fasting), perirenal, retroperitoneal, epididymal and inguinal fat pads and liver weights were recorded. Blood was collected from cardiac puncture and plasmas were stored at −80° C. for further assays if needed (depending on the radioactive state of samples). Liver triglyceride content was assessed (enzymatic-colorimetric method) as well as liver and adipose tissue TNF-α content (ELISA method).

TNF-α = TNF-α content in liver and epididymal white adipose tissue after 5 weeks of treatment in WD fed rats (ELISA); type: in vivo, rat; conditions: metformin 50, GW501516 10, compound I.1 10 mg/kg (alone or +metformin 50 mg/kg)
Procedure: as §1

[5] = 3 mg/kg once a day for 3 weeks, listed as COMP.I.1, 3 mg/kg
[6] = 10 mg/kg once a day for 3 weeks
[7] = 10 mg/kg once a day for 3 weeks, listed as COMP.I.1, 10 mg/kg

With `Cc1cc(C(=O)CCc2sc(-c3ccc(C(F)(F)F)cc3)nc2C(C)C)ccc1OCC(=O)O` [compound I.1, 4-[3-[4-Isopropyl-2-[4-(trifluoromethyl)phenyl]-5-thiazolyl]propionyl]-2-methylphenoxyacetic acid] as the compound, how does the “Increase of the number of oxidative fiber in tibialis muscle” value ([1]; WD fed rats, SDH histology, dose not specified) read?
Its value is “about 50%”.

What about the “Biopsis #1 Non-oxydative fibers (pixels)” value [1, 5] of the same compound?
Its value is 15343 pixels and 16157 pixels and 27185 pixels.

And the “Biopsis #1 oxydative fibers (% from total pixels)” value [1, 5]?
Its value is 73.56 % from total pixels and 72.16 % from total pixels and 51.41 % from total pixels.

What about the “Biopsis #1 oxydative fibers (pixels)” value [1, 5] of the same compound?
Its value is 42685 pixels and 41871 pixels and 28767 pixels.

And the “Biopsis #2 Non-oxydative fibers (pixels)” value [1, 5]?
The value was 16208 pixels and 1109 pixels and 16402 pixels.

And the “Biopsis #2 oxydative fibers (% from total pixels)” value [1, 5]?
The value was 72.07 % from total pixels and 81.01 % from total pixels and 69.92 % from total pixels.

What about the “Biopsis #2 oxydative fibers (pixels)” value [1, 5] of the same compound?
Its value is 41820 pixels and 47009 pixels and 38128 pixels.

And the “Biopsis #2 Non-oxydative fibers (pixels)” value [1, 6]?
Its value is 9243 pixels.

And the “Biopsis #2 oxydative fibers (% from total pixels)” value [1, 6]?
The value was 83.06 % from total pixels.

And the “Biopsis #2 oxydative fibers (pixels)” value [1, 6]?
Its value is 45326 pixels.

And the “Biopsis #1 Non-oxydative fibers (pixels)” value [1, 7]?
Its value is 18992 pixels and 27170 pixels and 16958 pixels.

And the “Biopsis #1 oxydative fibers (% from total pixels)” value [1, 7]?
Its value is 68.84 % from total pixels and 52.66 % from total pixels and 70.78 % from total pixels.

What about the “Biopsis #1 oxydative fibers (pixels)” value [1, 7] of the same compound?
Its value is 35030 pixels and 30218 pixels and 41070 pixels.

And the EC50 (mouse PPARα; 0.1% serum)?
Its EC50 is greater than 10 µM.

And the EC50 (mouse PPARα; 10% serum)?
The EC50 was greater than 10 µM.

And the EC50 (mouse PPARγ; 0.1% serum)?
The EC50 was greater than 10 µM.

And the EC50 (mouse PPARγ; 10% serum)?
Its EC50 is greater than 10 µM.

What about the “Body weight / body weight gain during treatment” value ([2]; compound I.1 3 mg/kg (alone or +metformin 50 mg/kg)) of the same compound?
Its value is “did not affect body weight gain”.

And the “Body weight / body weight gain during treatment” value ([2]; pioglitazone 10, metformin 50, GW501516 10, compound I.1 10 mg/kg (alone or +metformin 50 mg/kg))?
The value was “decreased thereafter body weight gain, until a significant effect after 4 weeks of treatment”.

And the “Decrease of HOMA-IR” value ([3]; 4 h fasted, pioglitazone 10, metformin 50, GW501516 10, compound I.1 10 mg/kg)?
Its value is ~25% and 28%.

What about the Plasma adiponectin levels ([3]; pioglitazone 10, metformin 50, GW501516 10, compound I.1 3 and 10 mg/kg) of the same compound?
The Plasma adiponectin levels was “did not prevent a decrease”.

What about the “Triglycerides content in the liver” value [4] of the same compound?
The value was “did not affect; also recorded: did not significantly decrease”.

What about the “Decrease of TNF-α levels in epididymal white adipose tissues” value (TNF-α) of the same compound?
Its value is 51%.

— patent US20110092517A1, “Use of PPAR Delta Ligands for the Treatment or Prevention of Inflammation or Energy Metabolism/Production Related Diseases” (Cerenis Therapeutics S.A. & Nippon Chemiphar Co., Ltd., priority 2009, published 2011)
